Columns and labels:
COX-1 = biological target: T1, COX-1 (Homo sapiens, UniProt P23219); assay: Assay for the COX-1 inhibitory activity using U-937 (PGE2 inhibition); format: cell-based; details: for inhibition at 1 µM: 1 μM test compound, U-937 human lymphoma cells, PGE2 inhibition vs DMSO, read-out: Cyclooxygenase (COX) Inhibition (%) COX-1 (1 μM); for COX-1 inhibitory activity in comparison with the reference (Valdecoxib): 1 μM, U-937, comparison in words
T1 construct: host or cells: U-937 human lymphoma cells
T1 sequence (P23219 24-599): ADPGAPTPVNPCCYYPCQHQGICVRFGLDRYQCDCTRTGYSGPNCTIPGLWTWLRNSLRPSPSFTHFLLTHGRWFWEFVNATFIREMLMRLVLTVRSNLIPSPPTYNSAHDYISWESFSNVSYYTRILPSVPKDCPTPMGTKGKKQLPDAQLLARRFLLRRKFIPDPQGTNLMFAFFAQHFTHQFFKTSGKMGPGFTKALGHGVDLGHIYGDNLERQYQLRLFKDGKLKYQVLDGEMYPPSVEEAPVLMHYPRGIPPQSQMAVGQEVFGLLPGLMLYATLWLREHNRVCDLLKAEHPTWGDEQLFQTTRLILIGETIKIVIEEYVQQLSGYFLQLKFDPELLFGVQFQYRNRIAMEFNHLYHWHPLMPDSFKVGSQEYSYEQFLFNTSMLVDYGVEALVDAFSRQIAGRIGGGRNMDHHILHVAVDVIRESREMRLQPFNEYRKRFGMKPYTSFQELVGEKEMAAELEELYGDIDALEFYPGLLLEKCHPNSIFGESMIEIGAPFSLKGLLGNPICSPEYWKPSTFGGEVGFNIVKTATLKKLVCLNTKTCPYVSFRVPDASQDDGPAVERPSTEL
Experimental: The collected cells were diluted with HBSS (×1, Hank's balanced salt solution) to a concentration of 1×10^6 cells/ml. 1 ml of the dilute cell solution was placed into each well of 12-well plates. 5 μl of 1 μM solution of a test compound in DMSO and 5 μl of DMSO as a control were added to the wells. The wells were incubated in CO2 incubator at 37° C. for 15 minutes. Separately, 10 mM stock solution of arachidonic acid in ethanol was diluted ten times in ethanol to prepare 1 mM solution of arachidonic acid. Arachidonic acid acts as a substrate. 10 μl of the 1 mM solution of arachidonic acid was added to each well and incubated at CO2 incubator at 37° C. for 30 minutes. The cell solution of each well was placed in a centrifuge test tube and centrifuged at 10,000 rpm at 4° C. for 5 minutes. The concentration of PGE2 in the collected cells and the supernatant was quantified by means of a monoclonal kit (Cayman Chemicals). The percentages of PGE2 inhibition in a group of the test compound-treated cells in relation to a group of the DMSO-treated cells were calculated. Based on the calculated values, the COX-1 inhibitory activities were evaluated.
(§1) The percentages of the COX inhibition were calculated according to the following equation: % Inhibition=(concentration of PGE2 in test compound-untreated sample−concentration of PGE2 in test compound-treated sample)/(concentration of PGE2 in test compound-untreated sample)×100

COX-2 = biological target: T2, COX-2 (Mus musculus, UniProt Q05769); assay: Assay for the COX-2 inhibitory activity using RAW 264.7 cell line (PGE2, interferon γ/LPS induced); format: cell-based; details: for COX-2 inhibitory activity in comparison with the reference (Valdecoxib): 10 nM, RAW 264.7, comparison in words; for inhibition at 0.01 µM: RAW264.7, 10 nM test compound, RAW 264.7 cells, interferon γ + LPS, 18 hours, PGE2, read-out: Cyclooxygenase (COX) Inhibition (%) COX-2 (10 nM); for selectivity (COX-2 over COX-1): judged from Table 1, in words
T2 construct: host or cells: RAW 264.7 cells, aspirin-pretreated, then induced with interferon gamma and LPS
T2 sequence (Q05769 18-604): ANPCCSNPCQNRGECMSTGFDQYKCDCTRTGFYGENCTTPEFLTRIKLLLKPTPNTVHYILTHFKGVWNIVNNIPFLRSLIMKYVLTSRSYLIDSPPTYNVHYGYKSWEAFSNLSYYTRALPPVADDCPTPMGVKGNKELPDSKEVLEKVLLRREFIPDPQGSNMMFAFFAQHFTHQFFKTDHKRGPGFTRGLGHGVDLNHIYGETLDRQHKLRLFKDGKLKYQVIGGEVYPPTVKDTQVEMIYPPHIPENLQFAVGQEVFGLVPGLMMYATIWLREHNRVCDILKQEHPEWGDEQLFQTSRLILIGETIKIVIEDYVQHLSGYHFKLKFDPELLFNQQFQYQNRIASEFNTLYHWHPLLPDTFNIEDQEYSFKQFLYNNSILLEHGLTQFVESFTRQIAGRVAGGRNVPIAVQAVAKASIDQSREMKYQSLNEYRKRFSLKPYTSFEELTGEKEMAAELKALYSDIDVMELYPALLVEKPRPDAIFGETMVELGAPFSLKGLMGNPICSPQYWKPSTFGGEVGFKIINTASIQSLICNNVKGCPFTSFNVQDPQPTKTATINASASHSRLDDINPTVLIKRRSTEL
Experimental: Each well was treated with 250 μM of aspirin and incubated at 37° C. for 2 hours. […] Then, each well was treated with interferon γ (100 units/ml) and Iipopolysaccharide (LPS, 100 ng/ml) and incubated for 18 hours. The culture media were transferred to another test tubes. The concentration of PGE2 was quantified by means of the EIA kit (Cayman Chemicals).
as §1

[1] = tested on: carrageenan-induced paw edema; assay: Carrageenan-induced paw edema test in rats; format: in vivo; details: for Inhibitory effect (% inhibition): oral administration, foot swelling 3 hours after carrageenan injection vs control; for COX inhibitory effect (paw edema % inhibition) in comparison with Celecoxib: oral, comparison in words
Experimental: 2. Carrageenan-induced Paw Edema Test in Rats
The day before the test date, rats were selected in each group so that the average body weight was as close as possible, and the rats were fasted by feed withdrawal prior to the test. At the test date, the rats were orally administered with the test compounds and a control material. After 1 hour, the volume (V0h) of a predetermined portion of the left hind foot of the rats was measured with a plethysmometer. 100 μl of 1% carrageenan solution was subcutaneously injected to the left hind foot of the rats using a syringe with 1 ml capacity. Three hours after the injection of the carrageenan, the volume (V3h) of the predetermined portion of the foot was again measured. The foot swelling variation […] in a group of test compound-treated rats was compared with that of a group of control material-treated rats. With the supposition of 0% inhibition by the control (control material-treated rats), the inhibition percentage of edema of each test compound was determined.

Row | Structure (SMILES) | inhibition at 1 µM (COX-1) [%] | COX-1 inhibitory activity in comparison with the reference (Valdecoxib) (COX-1) | COX-2 inhibitory activity in comparison with the reference (Valdecoxib) (COX-2) | inhibition at 0.01 µM (COX-2) [%] | selectivity (COX-2 over COX-1) (COX-2) | Inhibitory effect (% inhibition) [1] [% inhibition] | COX inhibitory effect (paw edema % inhibition) in comparison with Celecoxib [1]
1 | CCOc1ccc(-c2nc(C(F)(F)F)nn2-c2ccc(S(C)(=O)=O)cc2)cc1 [Example 35, 5-(4-ethoxyphenyl)-1-(4-methanesulfonylphenyl)-3-trifluoromethyl-1H-[1,2,4]triazole] | 11.8 | the same as or lower | remarkably enhanced | 38.6 | excellent selectivities | 32.3 | remarkably improved
2 | COc1ccc(-c2nc(C(F)(F)F)nn2-c2ccc(S(C)(=O)=O)cc2)cc1 [Example 28, 1-(4-methanesulfonylphenyl)-5-(4-methoxyphenyl)-3-trifluoromethyl-1H-[1,2,4]triazole] | 10.1 | the same as or lower | remarkably enhanced | 28.6 | excellent selectivities | 23.3 | 

Further lines, with some results ahead:

Row | inhibition at 1 µM (COX-1) [%] | COX-1 inhibitory activity in comparison with the reference (Valdecoxib) (COX-1) | COX-2 inhibitory activity in comparison with the reference (Valdecoxib) (COX-2) | inhibition at 0.01 µM (COX-2) [%] | selectivity (COX-2 over COX-1) (COX-2) | Structure (SMILES) | Inhibitory effect (% inhibition) [1] [% inhibition] | COX inhibitory effect (paw edema % inhibition) in comparison with Celecoxib [1]
3 | 13.8 |  |  | 16 |  | CS(=O)(=O)c1ccc(-n2nc(C(F)(F)F)nc2-c2ccc(Br)cc2)cc1 [Example 27, 5-(4-bromophenyl)-1-(4-methanesulfonylphenyl)-3-trifluoromethyl-1H-[1,2,4]triazole] | 21.7 | 
4 | 14.6 | the same as or lower | remarkably enhanced | 33.6 | excellent selectivities | CS(=O)(=O)c1ccc(-n2nc(C(F)(F)F)nc2-c2ccc(Br)cc2)nc1 [Example 45, 2-[5-(4-bromophenyl)-3-trifluoromethyl-[1,2,4]triazol-1-yl]-5-methanesulfonyl pyridine] | 21.6 | 
5 | 23.5 |  |  | 26.8 |  | COc1ccc(/C=C/c2nc(C(F)(F)F)nn2-c2ccc(S(C)(=O)=O)cc2)cc1 [Example 34, 5-[2-(4-methoxyphenyl)vinyl]-1-(4-methanesulfonylphenyl)-3-trifluoromethyl-1H-[1,2,4]triazole] | 19.3 | 
6 | 34.6 |  |  | 32.3 |  | COc1ccc(-c2nc(C(F)(F)F)nn2-c2ccc(S(N)(=O)=O)cc2)cc1 [Example 43, 4-[5-(4-methoxyphenyl)-3-trifluoromethyl-[1,2,4]triazol-1-yl]benzene suffonamide] | 39.1 | remarkably improved

Reference: patent publication US7019144B2, “1,2,4-Triazole derivative, method for preparing the same, and pharmaceutical composition containing the same” (CJ Corp., priority 2002, dated 2006)
